The results in this text go back to ChEMBL document CHEMBL1201862, “PubChem BioAssay data set” (2004).

Molecules are shown by their SMILES.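 96-well plates; 48 h exposure; 5 concentrations. Endpoints by linear interpolation between flanking doses. Not reached: highest tested concentration assigned. At the GI50, growth is halved.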 The source made the active and inactive calls. No stated cut-off is given here; in the data, active = GI50 up to about 1.1 µM and inactive = higher.

Holding throughout (test): NCI-60 cell line screen, 48 h
Assay [1] has as its system SF-539.
The subject of assay [2] is HOP-62.
For assay [3], the system named is 786-0.
For assay [4], the system named is KM12.
The subject of assay [5] is A549.
The subject of assay [6] is Hs-578T.
In assay [7] the test system is NCI-H522.
Assay [8] deals with SF-295.
In assay [9] the test system is M14.
The test system of assay [10] is MOLT-4.
The test system of assay [11] is UACC-257.
For assay [12], the system named is SNB-19.
Assay [13] deals with UACC-62.
For assay [14], the system named is MDA-MB-231.
The subject of assay [15] is MDA-N.
The subject of assay [16] is PC-3.
Assay [17] relates to DU-145.
Assay [18] concerns EKVX.
In assay [19] the test system is K562.
Assay [20] has as its system RPMI-8226.

Take `CCCS(=O)(=O)Nc1ccc(Nc2c3ccccc3nc3ccccc23)c(OC)c1`: the GI50 in [1] is 1.17 µM (inactive); in assay [2], 0.561 µM (active); in assay [3] it was 0.807 µM (active); in [4], 1.92 µM (inactive); in [5], 0.43 µM (active); in [6] it was 3.16 µM (inactive). Also, the GI50 is 0.38 µM (active) in [7]; 0.429 µM (active) in assay [8]; 0.467 µM (active) in assay [9]; 0.0211 µM (active) in assay [10]; 5.53 µM (inactive) in [11]; 1.08 µM (active) in assay [12]. Besides, the GI50 was 0.695 µM (active) in assay [13]; 3.32 µM (inactive) in assay [14]; 4.16 µM (inactive) in [15]; 3.88 µM (inactive) in assay [16]; 0.271 µM (active) in assay [17]; 12.7 µM (inactive) in assay [18].
With `O=c1[nH]c(=O)n(C2CC(O)C(CO)O2)cc1OCCc1ccccc1` (stereo unspecified), the GI50 in assay [2], in [19], in assay [20], in [3], in assay [4] and in [5] was > 100 µM (inactive) throughout. Also, the GI50 in assay [6], in assay [7], in assay [8], in [9], in assay [10] and in assay [11] was > 100 µM (inactive) throughout. Moreover, the GI50 in assay [12], in assay [13], in [14], in [15], in assay [16] and in assay [17] was > 100 µM (inactive) each time. In assay [18], the GI50 is > 100 µM (inactive).
Take `CC(C)(C)c1cc2c(O)c(c1)C(c1ccccc1)c1cc(C(C)(C)C)cc(c1O)Cc1cc(C(C)(C)C)cc(c1O)C(c1ccccc1)c1cc(C(C)(C)C)cc(c1O)C2` (stereo unspecified): the GI50 in assay [1], in [2], in assay [19], in assay [3], in [4] and in assay [5] was > 100 µM (inactive) throughout. The GI50 in assay [6], in [7], in assay [8], in assay [9], in assay [10] and in assay [11] was > 100 µM (inactive) each time. For the same compound, the GI50 in [12], in assay [13], in [14], in assay [15], in assay [16] and in assay [17] was > 100 µM (inactive) in each case. For the same compound, the GI50 in [18] is > 100 µM (inactive).
For `O=C(O)c1ccc(N2C=[N+]3C(=Nc4ccccc43)C2)cc1`, the GI50 in assay [2], in assay [19], in assay [20], in [3], in assay [4] and in assay [5] was > 100 µM (inactive) in each case. For the same compound, the GI50 in assay [6], in [7], in [8], in assay [9], in assay [11] and in assay [12] was > 100 µM (inactive) in each case. Also, the GI50 in [13], in [14], in assay [15], in assay [16], in [17] and in [18] was > 100 µM (inactive) each time.
Regarding `CO/C(N)=C(C#N)/N=C/c1ccc2ccccc2c1`, the GI50 in [2] was 23.2 µM (inactive); in [19] it was 4.72 µM (inactive); in assay [20], 17.1 µM (inactive); in assay [3], 78.5 µM (inactive); in [4], 23.1 µM (inactive); in assay [5] it was 77.6 µM (inactive). The GI50 in assay [6] is 46.7 µM (inactive); in assay [7], > 100 µM (inactive); in [8], 33.2 µM (inactive); in assay [10], 30.6 µM (inactive); in [11] it was 7.52 µM (inactive); in assay [13], 3.06 µM (inactive). The GI50 in assay [14] is 19.5 µM (inactive); in assay [15], 8.41 µM (inactive); in assay [16], 19.9 µM (inactive); in assay [17] it was > 100 µM (inactive); in assay [18], 64.3 µM (inactive).
For `CC(C)Oc1c(C2(c3ccccc3)SCCCS2)c(=O)c1=O`, the GI50 is > 100 µM (inactive) in assay [1]; > 100 µM (inactive) in assay [2]; > 100 µM (inactive) in assay [3]; 50.2 µM (inactive) in assay [4]; > 100 µM (inactive) in [5]; 84.7 µM (inactive) in assay [6]. Moreover, the GI50 in [7] was 24.7 µM (inactive); in assay [8], > 100 µM (inactive); in [9], > 100 µM (inactive); in assay [10] it was > 100 µM (inactive); in assay [11], > 100 µM (inactive); in [12], > 100 µM (inactive). The GI50 in [13], in [14], in [15], in [16], in assay [17] and in assay [18] was > 100 µM (inactive) throughout.
In the case of `O=c1[nH]c(=O)c2c3n(cc2[nH]1)CCCCC3`, the GI50 in assay [2], in [19], in [20], in [3], in assay [4] and in [5] was > 100 µM (inactive) throughout. Further, the GI50 in assay [6], in assay [7], in [8], in assay [9], in assay [10] and in [11] was > 100 µM (inactive) throughout. Further, the GI50 is > 100 µM (inactive) in [12]; > 100 µM (inactive) in assay [13]; 64.4 µM (inactive) in [14]; > 100 µM (inactive) in [15]; > 100 µM (inactive) in [16]; > 100 µM (inactive) in assay [17]. In assay [18], the GI50 is > 100 µM (inactive).
As to `COC(=O)c1c(C(=O)OC)c(C(c2ccccc2)c2ccccc2)n(-c2ccccc2)c1Cl`, the GI50 in [1] is > 10 µM (inactive); in assay [2] it was > 10 µM (inactive); in assay [19] it was 4.14 µM (inactive); in [20] it was 3.35 µM (inactive); in assay [3], > 10 µM (inactive); in [4], 4.69 µM (inactive). Moreover, the GI50 in [5] is 7.03 µM (inactive); in [6] it was 3.43 µM (inactive); in assay [8], 5 µM (inactive); in assay [9] it was > 10 µM (inactive); in assay [10], 2.24 µM (inactive); in assay [11] it was 7.14 µM (inactive). Further, the GI50 in assay [12] was > 10 µM (inactive); in assay [13] it was 9.33 µM (inactive); in assay [14], > 10 µM (inactive); in assay [15] it was > 10 µM (inactive); in assay [16], 3.09 µM (inactive); in assay [17] it was > 10 µM (inactive). Further, the GI50 in assay [18] was 5.75 µM (inactive).
Turning to `CN(C)CCNc1ncnc2nc(-c3ccccc3)c(-c3ccccc3)nc12`, the GI50 in [1], in assay [2], in assay [3], in assay [4], in [5] and in [6] was > 100 µM (inactive) throughout. In addition, the GI50 in [7] was > 100 µM (inactive); in [9], > 100 µM (inactive); in [10], 0.094 µM (active); in assay [11] it was > 100 µM (inactive); in [13], > 100 µM (inactive); in [14], > 100 µM (inactive). Moreover, the GI50 in assay [15], in assay [16], in assay [17] and in assay [18] was > 100 µM (inactive) throughout.
Turning to `Cc1ccc(S(=O)(=O)n2cc(C#N)c(C#N)c2)cc1`, the GI50 is 19.6 µM (inactive) in assay [1]; 24.5 µM (inactive) in assay [2]; 33.3 µM (inactive) in assay [19]; 36.2 µM (inactive) in assay [3]; 31 µM (inactive) in [4]; 24.7 µM (inactive) in [5]. Further, the GI50 in assay [6] was 24.7 µM (inactive); in assay [7], 15.4 µM (inactive); in assay [8], 23 µM (inactive); in assay [9], 22.4 µM (inactive); in [10], 31.8 µM (inactive); in assay [11], 29.2 µM (inactive). For the same compound, the GI50 in assay [12] is > 10 µM (inactive); in assay [13], 17.3 µM (inactive); in [14], 42.6 µM (inactive); in [15], 27.1 µM (inactive); in assay [16], 28.9 µM (inactive); in [17], 31.4 µM (inactive). For the same compound, the GI50 in assay [18] was 30.2 µM (inactive).
In the case of `Clc1cc2nn(C3CCCCO3)nc2cc1Cl` (stereo unspecified), the GI50 in assay [1], in assay [2], in assay [19], in assay [3], in assay [4] and in assay [5] was > 100 µM (inactive) in each case. Further, the GI50 in [6], in [7], in assay [8], in [9], in assay [10] and in [11] was > 100 µM (inactive) throughout. Besides, the GI50 in assay [12], in assay [13], in assay [14], in [15], in assay [16] and in [17] was > 100 µM (inactive) throughout. Further, in assay [18], the GI50 was > 100 µM (inactive).
